The record followed here is patent US9587005B2 (priority 2010, dated 2017).

Test [1] addresses T1, GLP-1 receptor (Homo sapiens, UniProt P43220).
T1 construct: expressed in transfected cells; host or cells: HEK293
Kind of test: cAMP induction, firefly luciferase reporter assay in HEK293 cells co-transfected with GLP-1 receptor. The test is classed as cell-based. The text has this:
This example describes an exemplary method of testing the biological activity of the peptides of the present disclosures, which method involves assaying cAMP synthesis.
(In general: In a reporter assay the amount or activity of a reporter protein is the signal.)

Test [2] has as its target T2, GIP receptor (Homo sapiens, UniProt P48546).
T2 sequence (P48546 22-466): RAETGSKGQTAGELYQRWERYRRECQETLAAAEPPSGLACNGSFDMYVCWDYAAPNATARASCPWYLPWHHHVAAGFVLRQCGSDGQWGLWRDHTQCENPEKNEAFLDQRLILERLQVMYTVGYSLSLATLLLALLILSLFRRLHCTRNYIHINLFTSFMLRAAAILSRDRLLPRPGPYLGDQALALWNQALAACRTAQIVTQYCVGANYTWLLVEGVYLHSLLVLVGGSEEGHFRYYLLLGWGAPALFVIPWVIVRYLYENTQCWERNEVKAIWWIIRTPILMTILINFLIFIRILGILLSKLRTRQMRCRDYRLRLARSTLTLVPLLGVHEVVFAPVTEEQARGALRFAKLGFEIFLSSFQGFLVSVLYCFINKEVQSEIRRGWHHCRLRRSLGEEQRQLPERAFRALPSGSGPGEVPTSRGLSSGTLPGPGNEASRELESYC
Kind of test: cAMP induction, firefly luciferase reporter assay in HEK293 cells co-transfected with GIP receptor. Type of test: cell-based.

[3] abbreviates: EC50 (nM) at GLP-1 Receptor, Table 4, Example 9, composite of multiple different activity assays.
The mark [4] stands for this setting: EC50 (nM) at GLP-1 Receptor, Table 6, Example 12.

Each structure is given as a SMILES string. Like-named read-outs stand apart in the source and are kept apart here. *1 amine or outer side, *2 acyl side, *3 side chain or, on linkers, in order; H or OH if unused. Where a SMILES comes first, the peptide text is derived from it. Side-chain parts run from the residue outwards. [ ]: non-standard residue; d: D form. The star is where a group is joined. γGlu = O=C(O)[C@H](CCC(=O)[*:2])N[*:1]; Palmitoyl = CCCCCCCCCCCCCCCC(=O)*; Aib = CC(C)(N)C(=O)O

T1 sequence (P43220 24-463): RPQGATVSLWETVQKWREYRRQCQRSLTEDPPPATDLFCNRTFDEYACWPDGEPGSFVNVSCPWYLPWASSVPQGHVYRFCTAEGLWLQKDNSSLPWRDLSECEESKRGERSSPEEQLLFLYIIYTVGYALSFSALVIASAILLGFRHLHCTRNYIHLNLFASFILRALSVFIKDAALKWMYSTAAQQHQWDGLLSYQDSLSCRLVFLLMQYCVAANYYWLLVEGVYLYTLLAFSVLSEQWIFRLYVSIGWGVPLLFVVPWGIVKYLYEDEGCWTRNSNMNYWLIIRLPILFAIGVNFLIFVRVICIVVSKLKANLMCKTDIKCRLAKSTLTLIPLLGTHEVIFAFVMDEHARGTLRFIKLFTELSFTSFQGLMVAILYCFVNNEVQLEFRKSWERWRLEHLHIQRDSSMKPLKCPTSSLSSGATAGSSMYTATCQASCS

One may read the EC50 as the concentration at which the effect is half-maximal. Consider `CCCCCCCCCCCCCCCC(=O)N[C@@H](CCC(=O)NCCCC[C@H](NC(=O)[C@H](CC(=O)O)NC(=O)[C@H](CO)NC(=O)[C@@H](NC(=O)[C@H](Cc1ccccc1)NC(=O)[C@@H](NC(=O)CNC(=O)[C@H](CCC(=O)O)NC(=O)C(C)(C)NC(=O)[C@@H](N)Cc1c[nH]cn1)[C@@H](C)O)[C@@H](C)O)C(=O)N[C@@H](CO)C(=O)N[C@@H](CCCCN)C(=O)N[C@@H](Cc1ccc(O)cc1)C(=O)N[C@@H](CC(C)C)C(=O)N[C@@H](CC(=O)O)C(=O)N[C@@H](CCC(=O)O)C(=O)N[C@@H](CCCNC(=N)N)C(=O)N[C@@H](CCCNC(=N)N)C(=O)N[C@@H](C)C(=O)NC(C)(C)C(=O)N[C@@H](CC(=O)O)C(=O)N[C@@H](Cc1ccccc1)C(=O)N[C@H](C(=O)N[C@@H](CCC(N)=O)C(=O)N[C@@H](Cc1c[nH]c2ccccc12)C(=O)N[C@@H](CC(C)C)C(=O)N[C@@H](CC(C)C)C(=O)N[C@@H](CC(=O)O)C(=O)NCC(=O)NCC(=O)N1CCC[C@H]1C(=O)N[C@@H](CO)C(=O)N[C@@H](CO)C(=O)NCC(=O)N[C@@H](C)C(=O)N1CCC[C@H]1C(=O)N1CCC[C@H]1C(=O)N1CCC[C@H]1C(=O)N[C@@H](CO)C(N)=O)C(C)C)C(=O)O` [compound 41] (H-H[Aib]EGTFTSDK([γGlu-Palmitoyl])SKYLDERRA[Aib]DFVQWLLDGGPSSGAPPPS-NH2), for which the EC50 in test [1] (setting [3]) was determined as 0.006 nM; in test [2] (EC50 (nM) at GIP Receptor, Table 4, Example 9, composite of multiple different activity assays) it was 0.013 nM.

As for `CC[C@H](C)[C@H](NC(=O)[C@H](CO)NC(=O)[C@H](Cc1ccc(O)cc1)NC(=O)[C@H](CC(=O)O)NC(=O)[C@H](CO)NC(=O)[C@@H](NC(=O)[C@H](Cc1ccccc1)NC(=O)[C@@H](NC(=O)CNC(=O)[C@H](CCC(N)=O)NC(=O)C(C)(C)NC(=O)[C@@H](N)Cc1c[nH]cn1)[C@@H](C)O)[C@@H](C)O)C(=O)N[C@@H](Cc1ccc(O)cc1)C(=O)N[C@@H](CC(C)C)C(=O)N[C@@H](CC(=O)O)C(=O)N[C@@H](CCC(=O)O)C(=O)N[C@@H](CCCCN)C(=O)N[C@@H](CCCNC(=N)N)C(=O)N[C@@H](C)C(=O)N[C@@H](CCCCN)C(=O)N[C@@H](CCC(=O)O)C(=O)N[C@@H](Cc1ccccc1)C(=O)N[C@H](C(=O)N[C@@H](CS)C(=O)N[C@@H](Cc1c[nH]c2ccccc12)C(=O)N[C@@H](CC(C)C)C(=O)N[C@@H](CC(C)C)C(=O)N[C@@H](C)C(=O)NCC(=O)NCC(=O)N1CCC[C@H]1C(=O)N[C@@H](CO)C(=O)N[C@@H](CO)C(=O)NCC(=O)N[C@@H](C)C(=O)N1CCC[C@H]1C(=O)N1CCC[C@H]1C(=O)N1CCC[C@H]1C(=O)N[C@@H](CO)C(=O)N[C@@H](CCCCN)C(N)=O)C(C)C` [SEQ ID NO: 230] (H-H[Aib]QGTFTSDYSIYLDEKRAKEFVCWLLAGGPSSGAPPPSK-NH2; N-terminus assumed), the EC50 in test [1] (GLP-1 EC50 (nM), Table 17, Example 25) is 0.222 nM.

The compound `CCCCCCCCCCCCCCCC(=O)N[C@@H](CCC(=O)NCCCC[C@H](NC(=O)[C@H](CC(=O)O)NC(=O)[C@H](CO)NC(=O)[C@@H](NC(=O)[C@H](Cc1ccccc1)NC(=O)[C@@H](NC(=O)CNC(=O)[C@H](CCC(=O)O)NC(=O)C(C)(C)NC(=O)[C@@H](N)Cc1c[nH]cn1)[C@@H](C)O)[C@@H](C)O)C(=O)N[C@@H](CO)C(=O)N[C@@H](CCCCN)C(=O)N[C@@H](Cc1ccc(O)cc1)C(=O)N[C@@H](CC(C)C)C(=O)N[C@@H](CC(=O)O)C(=O)N[C@@H](CCC(=O)O)C(=O)N[C@@H](CCCNC(=N)N)C(=O)N[C@@H](C)C(=O)N[C@@H](C)C(=O)N[C@@H](CCC(N)=O)C(=O)N[C@@H](CC(=O)O)C(=O)N[C@@H](Cc1ccccc1)C(=O)N[C@H](C(=O)N[C@@H](CCC(N)=O)C(=O)N[C@@H](Cc1c[nH]c2ccccc12)C(=O)N[C@@H](CC(C)C)C(=O)N[C@@H](CC(C)C)C(=O)N[C@@H](CC(=O)O)C(=O)NCC(=O)NCC(=O)N1CCC[C@H]1C(=O)N[C@@H](CO)C(=O)N[C@@H](CO)C(=O)NCC(=O)N[C@@H](C)C(=O)N1CCC[C@H]1C(=O)N1CCC[C@H]1C(=O)N1CCC[C@H]1C(=O)N[C@@H](CO)C(N)=O)C(C)C)C(=O)O` [compound 80] (H-H[Aib]EGTFTSDK([γGlu-Palmitoyl])SKYLDERAAQDFVQWLLDGGPSSGAPPPS-NH2; N-terminus assumed) gave an EC50 in test [1] (setting [4]) of 0.008 nM.

`CC[C@H](C)[C@H](NC(=O)[C@H](CO)NC(=O)[C@H](Cc1ccc(O)cc1)NC(=O)[C@H](CC(=O)O)NC(=O)[C@H](CO)NC(=O)[C@@H](NC(=O)[C@H](Cc1ccccc1)NC(=O)[C@@H](NC(=O)CNC(=O)[C@H](CCC(N)=O)NC(=O)C(C)(C)NC(=O)[C@@H](N)Cc1ccc(O)cc1)[C@@H](C)O)[C@@H](C)O)C(=O)N[C@@H](Cc1ccc(O)cc1)C(=O)N[C@@H](CC(C)C)C(=O)N[C@@H](CC(=O)O)C(=O)N[C@@H](CCCCN)C(=O)N[C@@H](CCCCN)C(=O)N[C@@H](C)C(=O)N[C@@H](C)C(=O)NC(C)(C)C(=O)N[C@@H](CCC(=O)O)C(=O)N[C@@H](Cc1ccccc1)C(=O)N[C@H](C(=O)N[C@@H](CC(N)=O)C(=O)N[C@@H](Cc1c[nH]c2ccccc12)C(=O)N[C@@H](CC(C)C)C(=O)N[C@@H](CC(C)C)C(=O)N[C@@H](C)C(=O)NCC(=O)NCC(=O)N1CCC[C@H]1C(=O)N[C@@H](CO)C(=O)N[C@@H](CO)C(=O)NCC(=O)N[C@@H](C)C(=O)N1CCC[C@H]1C(=O)N1CCC[C@H]1C(=O)N1CCC[C@H]1C(=O)N[C@@H](CO)C(=O)N[C@@H](CCCCN)C(N)=O)C(C)C` [mt-402]: the EC50 in test [1] (read-out: GLP-1 Receptor EC50, Table 1, Example 6) stood at 0.007 nM.

For the compound `CC[C@H](C)[C@H](NC(=O)[C@H](CO)NC(=O)[C@H](Cc1ccc(O)cc1)NC(=O)[C@H](CC(=O)O)NC(=O)[C@H](CO)NC(=O)[C@@H](NC(=O)[C@H](Cc1ccccc1)NC(=O)[C@@H](NC(=O)CNC(=O)[C@H](CCC(N)=O)NC(=O)[C@@H](CO)NC(=O)[C@@H](N)Cc1ccc(O)cc1)[C@@H](C)O)[C@@H](C)O)C(=O)N[C@@H](Cc1ccc(O)cc1)C(=O)N[C@@H](CC(C)C)C(=O)N[C@@H](CC(=O)O)C(=O)N[C@@H](CCCCN)C(=O)N[C@@H](CCC(N)=O)C(=O)N[C@@H](C)C(=O)N[C@@H](C)C(=O)NC(C)(C)C(=O)N[C@@H](CCC(=O)O)C(=O)N[C@@H](Cc1ccccc1)C(=O)N[C@H](C(=O)N[C@@H](CC(N)=O)C(=O)N[C@@H](Cc1c[nH]c2ccccc12)C(=O)N[C@@H](CC(C)C)C(=O)N[C@@H](CC(C)C)C(=O)N[C@@H](C)C(=O)NCC(=O)NCC(=O)N1CCC[C@H]1C(=O)N[C@@H](CO)C(=O)N[C@@H](CO)C(=O)NCC(=O)N[C@@H](C)C(=O)N1CCC[C@H]1C(=O)N1CCC[C@H]1C(=O)N1CCC[C@H]1C(=O)N[C@@H](CO)C(=O)N[C@@H](CS)C(N)=O)C(C)C` [compound 50], it took 0.108 nM to reach a half-maximal effect in test [1] (setting [4]) (EC50).

Regarding `CCCCCCCCCCCCCCCC(=O)N[C@@H](CCC(=O)NCCCC[C@H](NC(=O)[C@H](CC(=O)O)NC(=O)[C@H](CO)NC(=O)[C@@H](NC(=O)[C@H](Cc1ccccc1)NC(=O)[C@@H](NC(=O)CNC(=O)[C@H](CCC(N)=O)NC(=O)C(C)(C)NC(=O)[C@@H](N)Cc1c[nH]cn1)[C@@H](C)O)[C@@H](C)O)C(=O)N[C@@H](CO)C(=O)N[C@@H](CCCCN)C(=O)N[C@@H](Cc1ccc(O)cc1)C(=O)N[C@@H](CC(C)C)C(=O)N[C@@H](CC(=O)O)C(=O)N[C@@H](CCC(=O)O)C(=O)N[C@@H](CCCNC(=N)N)C(=O)N[C@@H](CCCNC(=N)N)C(=O)N[C@@H](C)C(=O)NC(C)(C)C(=O)N[C@@H](CCC(=O)O)C(=O)N[C@@H](Cc1ccccc1)C(=O)N[C@H](C(=O)N[C@@H](CCC(N)=O)C(=O)N[C@@H](Cc1c[nH]c2ccccc12)C(=O)N[C@@H](CC(C)C)C(=O)N[C@@H](CC(C)C)C(=O)N[C@@H](CC(=O)O)C(=O)NCC(=O)NCC(=O)N1CCC[C@H]1C(=O)N[C@@H](CO)C(=O)N[C@@H](CO)C(=O)NCC(=O)N[C@@H](C)C(=O)N1CCC[C@H]1C(=O)N1CCC[C@H]1C(=O)N1CCC[C@H]1C(=O)N[C@@H](CO)C(N)=O)C(C)C)C(=O)O` [SEQ ID NO: 37] (H-H[Aib]QGTFTSDK([γGlu-Palmitoyl])SKYLDERRA[Aib]EFVQWLLDGGPSSGAPPPS-NH2; N-terminus assumed), the EC50 in test [2] (GIP (0.01), Table 8, Example 14, activity at the GIP receptor) was found to be 0.003 nM.

Take `CCCCCCCCCCCCCCCC(=O)N[C@@H](CCC(=O)NCCCC[C@H](NC(=O)[C@H](CC(=O)O)NC(=O)[C@H](CO)NC(=O)[C@@H](NC(=O)[C@H](Cc1ccccc1)NC(=O)[C@@H](NC(=O)CNC(=O)[C@H](CCC(=O)O)NC(=O)C(C)(C)NC(=O)[C@@H](N)Cc1c[nH]cn1)[C@@H](C)O)[C@@H](C)O)C(=O)N[C@@H](CO)C(=O)N[C@@H](CCCCN)C(=O)N[C@@H](Cc1ccc(O)cc1)C(=O)N[C@@H](CC(C)C)C(=O)N[C@@H](CC(=O)O)C(=O)N[C@@H](CCC(=O)O)C(=O)N[C@@H](CCCNC(=N)N)C(=O)N[C@@H](CCCNC(=N)N)C(=O)N[C@@H](C)C(=O)NC(C)(C)C(=O)N[C@@H](CCC(=O)O)C(=O)N[C@@H](Cc1ccccc1)C(=O)N[C@H](C(=O)N[C@@H](CCC(N)=O)C(=O)N[C@@H](Cc1c[nH]c2ccccc12)C(=O)N[C@@H](CC(C)C)C(=O)N[C@@H](CC(C)C)C(=O)N[C@@H](CC(=O)O)C(=O)NCC(=O)NCC(=O)N1CCC[C@H]1C(=O)N[C@@H](CO)C(=O)N[C@@H](CO)C(=O)NCC(=O)N[C@@H](C)C(=O)N1CCC[C@H]1C(=O)N1CCC[C@H]1C(=O)N1CCC[C@H]1C(=O)N[C@@H](CO)C(N)=O)C(C)C)C(=O)O` [compound 38] (H-H[Aib]EGTFTSDK([γGlu-Palmitoyl])SKYLDERRA[Aib]EFVQWLLDGGPSSGAPPPS-NH2; N-terminus assumed): the concentration for a half-maximal effect (EC50) in test [1] (setting [3]) is 0.008 nM.
